Laboratory results published in patent publication US20210395313A1, “PEPTIDE PAC1 ANTAGONISTS” (AMGEN INC., priority 2017, published 2021).
pIC50: −log10 of the molar value. Where a SMILES comes first, the peptide text is derived from it. Bridges are numbered along the chain shown (N, C = ends). Where no end group is shown, it is not given here.

target: T1, rat PAC1 receptor (Rattus norvegicus, UniProt P32215); experiment: LANCE Ultra cAMP accumulation antagonist assay in RG-2 cells; assay type: cell-based;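 further: RG-2 rat glioma cells endogenously expressing PAC1, test peptide preincubated 30 min, then PAC1 agonist added at its EC80 for 15 min, cAMP accumulation read by LANCE Ultra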
T1 construct: SHSY-5Y (human neuroblastoma cell line) and RG-2 (rat glioma cell line) cells endogenously express human and rat PAC1 receptors, respectively; endogenous in cells; host or cells: RG-2 rat glioma cells
T1 sequence (P32215 20-523): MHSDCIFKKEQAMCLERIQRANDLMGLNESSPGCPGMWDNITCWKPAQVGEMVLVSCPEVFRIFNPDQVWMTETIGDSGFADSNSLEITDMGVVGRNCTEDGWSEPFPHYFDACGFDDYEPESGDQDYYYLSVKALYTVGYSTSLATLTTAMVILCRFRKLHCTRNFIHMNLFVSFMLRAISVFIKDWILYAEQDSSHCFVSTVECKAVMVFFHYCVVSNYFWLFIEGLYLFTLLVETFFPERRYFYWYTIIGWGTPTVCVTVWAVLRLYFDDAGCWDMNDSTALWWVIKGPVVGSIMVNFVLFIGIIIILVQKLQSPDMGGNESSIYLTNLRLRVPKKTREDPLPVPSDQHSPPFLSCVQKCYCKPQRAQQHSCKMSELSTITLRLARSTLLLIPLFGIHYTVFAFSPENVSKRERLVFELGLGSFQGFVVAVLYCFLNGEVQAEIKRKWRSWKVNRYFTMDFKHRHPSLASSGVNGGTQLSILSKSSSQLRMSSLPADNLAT

`CC[C@H](C)[C@H](NC(=O)[C@H](C)NC(=O)[C@H](CCCCN)NC(=O)[C@H](CCCNC(=N)N)NC(=O)[C@H](Cc1ccccc1)NC(=O)[C@H](CCC(N)=O)NC(=O)[C@@H]1CSSC[C@H](N)C(=O)N[C@@H](CC(=O)O)C(=O)N[C@@H](C)C(=O)N[C@@H]([C@@H](C)O)C(=O)N1)C(=O)N[C@@H](CC(=O)O)C(=O)N[C@@H](CC(=O)O)C(=O)N[C@H]1CSSC[C@@H](C(=O)N[C@@H](CCSC)C(=O)N[C@@H](CCCCN)C(=O)N[C@@H](CCC(N)=O)C(=O)N[C@@H](CCCCN)C(=O)N[C@@H](CCCCN)C(=O)N[C@@H](CCCCN)C(=O)N[C@@H](CCC(=O)O)C(=O)N[C@@H](Cc2c[nH]c3ccccc23)C(=O)N[C@@H](CCCCN)C(=O)N[C@@H](C)C(=O)NCC(=O)N[C@@H](Cc2c[nH]cn2)C(=O)O)NC(=O)[C@H](C)NC(=O)[C@H](CO)NC(=O)[C@H](Cc2c[nH]cn2)NC(=O)[C@H](Cc2ccc(O)cc2)NC(=O)[C@H](C)NC(=O)[C@H](CCC(N)=O)NC(=O)[C@H](CCCNC(=N)N)NC(=O)[C@H](C)NC1=O` [compound 449] (H-CDATCQFRKAIDDCARQAYHSACMKQKKKEWKAGH-OH; disulfide 1-5, 14-23) and `CC[C@H](C)[C@H](NC(=O)[C@H](C)NC(=O)[C@H](CCCCN)NC(=O)[C@H](CCCNC(=N)N)NC(=O)[C@H](Cc1ccccc1)NC(=O)[C@H](CCC(N)=O)NC(=O)[C@@H]1CSSC[C@H](N)C(=O)N[C@@H](CC(=O)O)C(=O)N[C@@H](C)C(=O)N[C@@H]([C@@H](C)O)C(=O)N1)C(=O)N[C@@H](CC(=O)O)C(=O)N[C@@H](CC(=O)O)C(=O)N[C@H]1CSSC[C@@H](C(=O)N[C@@H](CCSC)C(=O)N[C@@H](CCCCN)C(=O)N[C@@H](CCC(N)=O)C(=O)N[C@@H](CCCCN)C(=O)N[C@@H](CCCCN)C(=O)N[C@@H](CCCCN)C(=O)N[C@@H](CCC(=O)O)C(=O)N[C@@H](Cc2c[nH]c3ccccc23)C(=O)N[C@@H](CCCCN)C(=O)N[C@@H](Cc2c[nH]cn2)C(=O)O)NC(=O)[C@H](C)NC(=O)[C@H](CCCCN)NC(=O)[C@H](Cc2ccccc2)NC(=O)[C@H](CO)NC(=O)[C@H](Cc2c[nH]cn2)NC(=O)[C@H](Cc2ccc(O)cc2)NC(=O)[C@H](C)NC(=O)[C@H](CCC(N)=O)NC(=O)[C@H](CCCNC(=N)N)NC(=O)[C@H](C)NC1=O` [compound 450] (H-CDATCQFRKAIDDCARQAYHSFKACMKQKKKEWKH-OH; disulfide 1-5, 14-25) fall in the same range of pIC50: 7.00 to 9.00 for the first, 7.00 to 9.00 for the second.

Compared with `CC[C@H](C)[C@H](NC(=O)[C@H](C)NC(=O)[C@H](CCCCN)NC(=O)[C@H](CCCNC(=N)N)NC(=O)[C@H](Cc1ccccc1)NC(=O)[C@H](CCC(N)=O)NC(=O)[C@@H]1CSSC[C@H](N)C(=O)N[C@@H](CC(=O)O)C(=O)N[C@@H](C)C(=O)N[C@@H]([C@@H](C)O)C(=O)N1)C(=O)N[C@@H](CC(=O)O)C(=O)N[C@@H](CC(=O)O)C(=O)N[C@H]1CSSC[C@@H](C(=O)N[C@@H](CCSC)C(=O)N[C@@H](CCCCN)C(=O)N[C@@H](CCC(N)=O)C(=O)N[C@@H](CCCCN)C(=O)N[C@@H](CCCCN)C(=O)N[C@@H](CCCCN)C(=O)N[C@@H](CCC(=O)O)C(=O)N[C@@H](Cc2c[nH]c3ccccc23)C(=O)N[C@@H](CCCCN)C(=O)N[C@@H](C)C(=O)N[C@@H](Cc2c[nH]cn2)C(=O)O)NC(=O)[C@H](C)NC(=O)[C@H](CCCCN)NC(=O)[C@H](Cc2ccccc2)NC(=O)[C@H](CO)NC(=O)[C@H](Cc2c[nH]cn2)NC(=O)[C@H](Cc2ccc(O)cc2)NC(=O)[C@H](C)NC(=O)[C@H](CCC(N)=O)NC(=O)[C@H](CCCNC(=N)N)NC(=O)[C@H](C)NC1=O` [compound 451] (H-CDATCQFRKAIDDCARQAYHSFKACMKQKKKEWKAH-OH; disulfide 1-5, 14-25), “ACDATCQFRKAIDDCQKQAHHSNVPGSVFKACMKQKKKEFKAG-NH2 (disulfide 2-6, 15-32) [compound 184]” is higher in pIC50: 7.00 to 9.00 for the first, 9.00 to 11.00 for the second. The second is the more potent here.

Compared with “CDATCQFRKAIDDCAGTARHSNVPGSVFKACMKQKKKEWKAG-NH2 (disulfide 1-5, 14-31) [compound 446]”, “CDATCQFRKAIDDCANKSWHSNVPGSVFKLCMKQKKKEWKAGH-NH2 (disulfide 1-5, 14-31) [compound 445]” is lower in pIC50: 7.00 to 9.00 for the first, under 7.00 for the second. The first is the more potent here.

“CDATCQFRKAIDDCQKQAHHSNVPGSVFKACMKQKKKEFKAGA (disulfide 1-5, 14-31) [compound 175]” and “CDATCQFRKAIDDCQKQAHHSNVPGSVFKACMKQKKKEFKAGE (disulfide 1-5, 14-31) [compound 173]” fall in the same range of pIC50: 9.00 to 11.00 for the first, 9.00 to 11.00 for the second.

“CDATCQFRKAIDDCQKQAHHSNVPGSVFKACMKQKKKEFKAGF (disulfide 1-5, 14-31) [compound 172]” and “CDATCQFRKAIDDCQKQAHHSNVPGSVFKACMKQKKKEFKAGGGGS (disulfide 1-5, 14-31) [compound 177]” fall in the same range of pIC50: 9.00 to 11.00 for the first, 9.00 to 11.00 for the second.

“CDATCQFRKAIDDCQKQAHHSNVPGSVFKACMKQKKKEFKAGH (disulfide 1-5, 14-31) [compound 171]” and “CDATCQFRKAIDDCQKQAHHSNVPGSVFKACMKQKKKEFKAGK (disulfide 1-5, 14-31) [compound 182]” fall in the same range of pIC50: 9.00 to 11.00 for the first, 9.00 to 11.00 for the second.

“CDATCQFRKAIDDCQKQAHHSNVPGSVFKACMKQKKKEFKAGR (disulfide 1-5, 14-31) [compound 170]” and “CDATCQFRKAIDDCQKQAHHSNVPGSVFKACMKQKKKEFKAGY (disulfide 1-5, 14-31) [compound 164]” fall in the same range of pIC50: 9.00 to 11.00 for the first, 9.00 to 11.00 for the second.

“CDATCQFRKAIDDCQKQAHHSNVPGSVFKACMKQKKKEFKAN (disulfide 1-5, 14-31) [compound 202]” and “CDATCQFRKAIDDCQKQAHHSNVPGSVFKACMKQKKKEFKAN-NH2 (disulfide 1-5, 14-31) [compound 205]” fall in the same range of pIC50: 9.00 to 11.00 for the first, 9.00 to 11.00 for the second.

First: CDATCQFRKAIDDCQKQAHHSNVPGSVFKSCMKQKKKEFKAG-NH2 (disulfide 1-5, 14-31) [compound 207]
Second: CDATCQFRKCIDDWQKQAHHSNVPGSVFKARMKQCKKEFKAG-NH2 (disulfide 1-5, 10-35) [compound 176]
The pIC50 of the first is higher: 9.00 to 11.00 for the first, 7.00 to 9.00 for the second. The first is the more potent here.

“GSCDATCQFRKAIDDCQKQAHHSNVPGSVFKACMKQKKKEFKAG-NH2 (disulfide 3-7, 16-33) [compound 185]” and “MCDATCQFRKAIDDCQKQAHHSNVPGSVFKACMKQKKKEFKAGHHHHH (disulfide 2-6, 15-32) [compound 199]” fall in the same range of pIC50: 9.00 to 11.00 for the first, 9.00 to 11.00 for the second.

In the case of “MCDATCQFRKAIDDCQKQAHHSNVPGSVFKACMKQKKKEFKAGHHHHHH (disulfide 2-6, 15-32) [compound 204]”, the pIC50 was 9.00 to 11.00.
